Key:
[1] = test system: monocotyledonous and dicotyledonous harmful plant species; details: stated as known; cited from earlier work
Amaranthus retroflexus = experiment: Greenhouse pot trial, post-emergence herbicidal activity; assay type: in vivo; details: single post-emergence treatment, 12 g/ha of indaziflam, BBCH growth stage 11-12
Procedure: (§1) In separate pots, biological trials were conducted in the greenhouse under identical conditions (apart from the treatment with the different products P1 and P2 mentioned above). Each pot contained the same soil and the same amount of seeds of each of the following weeds (two monocotyledonous and two dicotyledonous harmful plant species (weed species)):
(§2) Tables 1 to 4 reflect the respective observed herbicidal activity ratings after treatment of the monocotyledonous harmful plant species (BBCH growth stage 11) and dicotyledonous harmful plant species (BBCH growth stage 10) for the different products applied once in post-emergence.
(§3) The observation period in each case was 40 days after start of treatment with the respective products P1 and P2 mentioned above, both in amounts of 3 L/ha and 5 L/ha, respectively.
(§4) Tables 5 to 8 reflect the respective observed herbicidal activity ratings after treatment of the monocotyledonous harmful plant species (BBCH growth stage 12-13) and dicotyledonous harmful plant species (BBCH growth stage 12) for the different products applied once in post-emergence. The observation period in each case was 40 days after start of treatment with the respective products P1 and P2 mentioned above, both in amounts of 3 L/ha and 5 L/ha, respectively.
(§5) Table 9 reflects the post-emergence efficacy of indaziflam [the ratio by weight of the (1*R)-1-fluoroethyl diastereoisomer of indaziflam to the ratio by weight of the (1*S)-1-fluoroethyl diastereoisomer of indaziflam was about 95:5] on the above mentioned weeds (two monocotyledonous and two dicotyledonous harmful plant species (weed species)) AMARE, STEME, LOLMU and POOAN, each at BBCH growth stage 11-12. Indaziflam was used in an amount of 12 g/ha.

Lolium multiflorum = experiment: as above; assay type: in vivo; details: single post-emergence treatment, 12 g/ha of indaziflam, BBCH growth stage 11-12
Procedure: as §1, §2, §3, §4, §5

Poa annua = experiment: as above; assay type: in vivo; details: single post-emergence treatment, 12 g/ha of indaziflam, BBCH growth stage 11-12
Procedure: as §1, §2, §3, §4, §5

Stellaria media = experiment: as above; assay type: in vivo; details: single post-emergence treatment, 12 g/ha of indaziflam, BBCH growth stage 11-12
Procedure: as §1, §2, §3, §4, §5

Cc1ccc2c(c1)[C@H](Nc1nc(N)nc([C@@H](C)F)n1)[C@@H](C)C2 (mixture of isomers) [indaziflam, N^2-[(1R,2S)-2,3-dihydro-2,6-dimethyl-1H-inden-1-yl]-6-[(1RS)-1-fluoroethyl]-1,3,5-triazine-2,4-diamine]
post-emergence efficacy [1]: insufficient
Regrowth (ratings of herbicidal activity) (Amaranthus retroflexus): very weak herbicidal effect starting on day 7 after treatment
Regrowth (ratings of herbicidal activity) (Lolium multiflorum): no herbicidal effect
Regrowth (ratings of herbicidal activity) (Poa annua): no herbicidal effect
Regrowth (ratings of herbicidal activity) (Stellaria media): no herbicidal effect

Reference: patent publication US10334854B2, “Herbicide combinations comprising glufosinate and indaziflam” (BAYER CROPSCIENCE AKTIENGESELLSCHAFT, priority 2016, dated 2019)
